The text below walks through data of PMC6759624, “Unraveling Heparan Sulfate Proteoglycan Binding Motif for Cancer Cell Selectivity” (Frontiers in Oncology, 2019).

“Also recorded” adds a separate entry of the source.

For series [1] the following is noted: ref [9], [10]; cited from earlier work. The source says: (§1) NT4 peptide is a tetrabranched peptide that binds to GAG chains of HSPG. […] NT4 binds cell lines of different human cancers, including colon adenocarcinoma, pancreas adenocarcinoma, bladder cancer, and breast cancer ([11], [12]).
Series [2] concerns cell lines of different human cancers, including colon adenocarcinoma, pancreas adenocarcinoma, bladder cancer, and breast cancer. Particulars: ref [11], [12]; cited from earlier work.
Source text: as §1

The next series concerns PgsA-745 cells. Particulars: Chinese hamster ovary cell mutant, deficient in xylosyltransferase; ref [13]; cited from earlier work.
Source text: as §1

Series [3] concerns HT-29, PANC-1, MCF-7, and MDA-MB-231 cells. Description: NT4 cell binding versus sulfatase expression in cell panel. The format is cell-based, human. To be noted: SULF-1 and SULF-2 expression (RT-PCR; SULF-1 also Western blot) versus flow cytometry binding. As to the method: PANC-1 human pancreas adenocarcinoma, HT-29 human colon adenocarcinoma, and MCF-7 and MDA-MB-231 human breast adenocarcinoma cells were grown in the recommended American Type Culture Collection (ATCC) media, supplemented with 10% fetal calf serum, 200 μg/ml glutamine, 100 μg/ml streptomycin, 60 μg/ml penicillin, and maintained at 37°C, 5% CO2. Cell lines were purchased from ATCC, and cell profiling was analyzed to authenticate human cell lines (BMR Genomics). All experiments were performed using 2 × 10^5 cells in 96-well U-bottom plates. All dilutions were performed in phosphate-buffered saline (PBS), containing 5 mM EDTA and 1% bovine serum albumin (BSA). […] P values were calculated using a two-tailed Student t-test and GraphPad Prism 5.0 software. […] RNA was quantified by spectrophotometry at 260 and 280 nm and verified by agarose gel electrophoresis. The same quantity of RNA for every cell line was loaded on the gel. […] Signals were detected using Image LAS4010 (GE Healthcare). […] P values were calculated using a one-tailed Student t-test and GraphPad Prism 5.0 software. […] Signals were detected using Image LAS4010 (GE Healthcare). […] P values were calculated using a parametric, unpaired Student t-test, and GraphPad Prism 5.0 software.
A general note: In western blotting, separated proteins are transferred to a membrane and probed.

A further series has as its system glypican-3. Nature of the series: SPR, NT4 binding to recombinant glypican-3. Details: species or system human. Particulars: rHSPG over immobilized NT4. As to the method:
Experiments were performed on a Biacore T100 instrument (GE Healthcare). All materials were purchased from GE Healthcare unless otherwise specified. Full-length recombinant human HSPG were purchased from R&D Systems. Syndecan-3, syndecan-4, and glypican-3 were obtained from the mouse myeloma cell line (NS0), and glypican-4 was obtained from the Chinese Hamster Ovary cell line. The activity of syndecan-4, glypican-3, and glypican-4 was measured by the supplier as the ability of the immobilized protein to bind FGF-basic. The activity of syndecan-3 was measured by the supplier as the ability of the immobilized protein to inhibit adhesion of Saos-2 human osteosarcoma cells to human fibronectin.
NT4-biotin was captured on a CM5 sensor chip where streptavidin had previously been immobilized by standard amine coupling. Briefly, the sensor chip surface was activated with a mixture of 0.1 M 1-ethyl-3(3-dimethylaminopropyl)-carbodiimide (EDC) and 0.4 M N-hydroxyl succinimide (NHS) for 7 min at a flow rate of 5 μl/min. Streptavidin was injected over the surface for 7 min, and finally, 1 M ethanolamine pH 8.5 was used to block any activated carboxyl groups. […]
Kinetics were analyzed with the Biacore T100 evaluation 1.1.1 software using the 1:1 Langmuir model to fit the curves.
(In general: Surface plasmon resonance follows binding to a sensor surface in real time, without labels.)

On the set-up of series [4]: method as in PMID 27255651. To be noted: compared with heparin and HS; ref [13]; cited from earlier work.
The conditions of series [5]: ref [13], [19] (b5); cited from earlier work. The source says: NT4 peptides can be conjugated with different functional units and can selectively deliver drugs for cancer therapy or transport tracers for tumor imaging ([11], [12], [15]–[18]). […] NT4 transports the chemotherapeutic moiety to the cancer cell membrane and, ultimately, into the cell ([14]–[16]).

For (pyELYENKPRRPYIL)4K2K-beta-Ala [NT4], in series [1], the “half-life (in words)” value is given as “long half-life” and the “stability to proteolytic enzymes” value was “stable to proteolytic enzymes”. Further, in series [2], the “binding to human cancer cell lines” value is given as “binds”. Also, in the series on PgsA-745 cells, the “binding to cells lacking GAG chains” value is “does not bind”. Besides, the “correlation of NT4 binding with sulfatase expression” value in series [3] is “inversely correlated with sulfatase expression; also recorded: inversely correlated with expression of sulfatases”. Besides, in the series on glypican-3, the “binding to glypican-3” value is “bound; also recorded: binds”. Further, in series [4], the “binding to chondroitin sulfate” value is on record as “lower affinity”. In addition, in series [5], the “binding to heparan sulfate” value was “preferential high-affinity binding” and the binding to heparin result is recorded as “preferential high-affinity binding”.
